Assay results from patent US4474747A, “Process for increasing the tolerance of X-ray contrast media, and contrast media obtained thereby” (Guerbet S.A., priority 1981, dated 1984).

Key:
Mice = experiment: Acute intracisternal toxicity (method of Melartin et al.), mice; format: in vivo
Method: (§1) Acute intracisternal toxicity was determined by the method of E. Melartin, P. Tuohimaa, R. Dabb, Investigative Radiology, 1970, vol. 5, n°1, 13-21.

Rats = experiment: Acute intracisternal toxicity (method of Melartin et al.), rats; format: in vivo
Method: as §1

proteins = proteins (Homo sapiens, UniProt P02768); experiment: Protein binding, Brodersen technique; format: in vitro ADME
proteins, sequence (P02768 25-609): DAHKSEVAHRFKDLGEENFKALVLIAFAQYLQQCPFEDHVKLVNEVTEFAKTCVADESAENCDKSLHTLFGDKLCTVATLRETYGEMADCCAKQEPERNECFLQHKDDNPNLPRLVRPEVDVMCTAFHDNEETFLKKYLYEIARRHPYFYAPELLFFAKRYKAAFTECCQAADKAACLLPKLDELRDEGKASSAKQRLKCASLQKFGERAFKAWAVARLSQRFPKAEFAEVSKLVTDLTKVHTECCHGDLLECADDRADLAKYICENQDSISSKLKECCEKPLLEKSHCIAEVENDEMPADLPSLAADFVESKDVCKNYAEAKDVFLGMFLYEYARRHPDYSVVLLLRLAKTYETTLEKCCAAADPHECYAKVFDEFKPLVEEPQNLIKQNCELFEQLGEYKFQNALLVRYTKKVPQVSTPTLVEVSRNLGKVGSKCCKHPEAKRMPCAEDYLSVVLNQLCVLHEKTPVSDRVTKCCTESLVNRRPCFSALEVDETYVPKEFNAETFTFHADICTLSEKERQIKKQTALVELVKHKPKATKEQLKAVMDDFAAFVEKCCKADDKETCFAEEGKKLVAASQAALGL
Excerpt: The degree of the interaction with proteins is an index of the tolerance of contrast media. The lower this interaction, the better the tolerance.
The protein binding was investigated according to the Brodersen technique (J. of Clinical Investigation, 1974, vol. 4, 1353-1364).

| Compound | Kd (proteins) [mM] | further results |
| --- | --- | --- |
| CC(=O)Nc1c(I)c(C(=O)O)c(I)c(C(=O)NCCO)c1I [Telebrix] |  | Acute toxicity IC (DL50) Mice (Mice): 0.2 g Eq iodine/kg |
| CNC(=O)c1c(I)c(NC(C)=O)c(I)c(C(=O)O)c1I [Contrix (methylglucamine iothalamate), methylglucamine iothalamate] |  | Acute toxicity IC (DL50) Rats (Rats): 0.028 mole/rat |
| CNC(=O)c1c(I)c(C(=O)NCC(=O)Nc2c(I)c(C(=O)O)c(I)c(C(=O)NCCO)c2I)c(I)c(N(C)C(C)=O)c1I [Methylglucamine ioxaglate] | 8.2 |  |
| O=C(CCCCC(=O)Nc1c(I)cc(I)c(C(=O)O)c1I)Nc1c(I)cc(I)c(C(=O)O)c1I [Methylglucamine adipiodone] | 0.0781 |  |
